Test results taken from patent publication US7713994B2 (Wyeth LLC, priority 2005, dated 2010).
pIC50: −log10 of the molar value.

Assays:
HCT-116 = assay: Cytotoxicity assay (SRB), HCT-116; format: cell-based; conditions: Homo sapiens, HCT-116, 72 h, HCT116 cells, 3 days, SRB; read-out: In Vitro Cellular Activity IC50 HCT116
Procedure, shortened: (§1)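 Seeding: BT474 12000, HCT-116 4000, LoVo 6000, MCF-7 6000 cells/well; overnight attachment, 37 °C, 7% CO2. Drug exposure 3 d (BT474 6 d), RPMI 1640 + 5% FBS. Readout: TCA fix, 0.4% SRB, Tris solubilisation, A540.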

LoVo = assay: Cytotoxicity assay (SRB), LoVo; format: cell-based; conditions: Homo sapiens, LoVo, 72 h, LoVo cells, 3 days, SRB; read-out: In Vitro Cellular Activity IC50 LOVO
Procedure, shortened: as §1

MCF-7 = assay: Cytotoxicity assay (SRB), MCF-7; format: cell-based; conditions: Homo sapiens, MCF7, 72 h, MCF-7 cells, 3 days, SRB; read-out: In Vitro Cellular Activity IC50 MCF-7
Procedure, shortened: as §1

BT474 = assay: Cytotoxicity assay (SRB), BT474; format: cell-based; conditions: Homo sapiens, BT-474, 144 h, BT474 cells, 6 days, SRB; read-out: In Vitro Cellular Activity IC50 BT474
Procedure, shortened: as §1

cyclin E/CDK2 enzyme = biological target: T1, cyclin E/CDK2 enzyme (Homo sapiens, UniProt P24941); assay: CDK2 ELISA kinase assay (phospho-Rb ser 795 detection); format: biochemical; conditions: In Vitro Enzyme Assays, read-out: CDK2 IC50
T1 construct: made in house; host or cells: Sf9 insect cells, recombinant baculovirus
Procedure, shortened: (§2)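 ELISA format: plate-bound GST-Rb, 200 μM ATP, Sf9 cyclin/CDK enzyme, 1 h at 30° C; then anti-pRb Ser795 primary overnight at 4° C, HRP secondary, TMB. IC50 after no-substrate background subtraction.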

cyclin D1/cdk 4 enzyme = biological target: T2, cyclin D1/cdk 4 enzyme (Homo sapiens, UniProt P11802); assay: CDK4 ELISA kinase assay (phospho-Rb ser 795 detection); format: biochemical; conditions: In Vitro Enzyme Assays, 200 μM ATP, read-out: CDK4 IC50
T2 construct: made in house; host or cells: Sf9 insect cells, recombinant baculovirus
T2 sequence (P11802 whole entry, species assumed): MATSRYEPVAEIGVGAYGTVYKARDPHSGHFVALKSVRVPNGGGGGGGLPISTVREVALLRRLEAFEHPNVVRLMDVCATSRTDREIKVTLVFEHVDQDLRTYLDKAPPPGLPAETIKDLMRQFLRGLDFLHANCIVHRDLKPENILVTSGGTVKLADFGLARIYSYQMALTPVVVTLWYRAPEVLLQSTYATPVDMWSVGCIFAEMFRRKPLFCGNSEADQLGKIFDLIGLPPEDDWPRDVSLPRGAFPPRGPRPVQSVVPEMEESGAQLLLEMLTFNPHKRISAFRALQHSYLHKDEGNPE
T2 sequence (P24385 whole entry partner, species assumed): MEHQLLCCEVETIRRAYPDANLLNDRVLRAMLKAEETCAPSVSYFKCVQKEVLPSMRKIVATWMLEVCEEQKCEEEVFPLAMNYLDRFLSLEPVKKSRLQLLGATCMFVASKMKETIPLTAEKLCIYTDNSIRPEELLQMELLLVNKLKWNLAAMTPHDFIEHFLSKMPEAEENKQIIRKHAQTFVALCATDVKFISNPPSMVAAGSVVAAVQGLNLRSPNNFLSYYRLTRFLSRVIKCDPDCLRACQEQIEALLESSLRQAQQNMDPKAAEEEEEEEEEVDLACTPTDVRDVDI
Procedure, shortened: as §2

cyclin B/CDK1 enzyme = biological target: T3, cyclin B/CDK1 enzyme (Homo sapiens, UniProt P06493); assay: CDK1 ELISA kinase assay (phospho-Rb ser 795 detection); format: biochemical; conditions: In Vitro Enzyme Assays, read-out: CDK1 IC50
T3 construct: purchased New England BioLabs; host or cells: Sf9 insect cells, recombinant baculovirus
T3 sequence (P06493 whole entry): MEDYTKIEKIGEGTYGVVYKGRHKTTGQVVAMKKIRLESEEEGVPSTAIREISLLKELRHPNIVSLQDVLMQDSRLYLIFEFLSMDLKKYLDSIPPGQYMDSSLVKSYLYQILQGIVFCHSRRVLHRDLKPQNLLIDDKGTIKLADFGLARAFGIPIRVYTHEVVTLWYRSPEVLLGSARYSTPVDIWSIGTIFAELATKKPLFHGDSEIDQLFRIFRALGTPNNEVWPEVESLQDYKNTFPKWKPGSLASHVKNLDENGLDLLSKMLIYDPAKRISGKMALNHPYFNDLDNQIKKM
T3 sequence (P14635 whole entry partner): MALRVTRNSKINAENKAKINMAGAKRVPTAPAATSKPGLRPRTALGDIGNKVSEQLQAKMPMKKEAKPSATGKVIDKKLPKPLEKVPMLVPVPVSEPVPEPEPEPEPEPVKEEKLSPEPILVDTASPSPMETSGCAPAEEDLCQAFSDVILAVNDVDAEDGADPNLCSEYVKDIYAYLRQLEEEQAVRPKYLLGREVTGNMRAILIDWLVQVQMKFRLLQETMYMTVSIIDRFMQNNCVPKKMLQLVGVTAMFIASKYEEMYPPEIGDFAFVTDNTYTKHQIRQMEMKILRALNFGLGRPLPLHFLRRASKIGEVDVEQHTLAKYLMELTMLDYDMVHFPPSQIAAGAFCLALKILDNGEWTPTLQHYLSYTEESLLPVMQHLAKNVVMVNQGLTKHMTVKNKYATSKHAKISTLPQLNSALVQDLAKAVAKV
Procedure, shortened: as §2

pIC50 (cyclin E/CDK2 enzyme)	pIC50 (cyclin D1/cdk 4 enzyme)	pIC50 (cyclin B/CDK1 enzyme)	SMILES	pIC50 (HCT-116)	pIC50 (LoVo)	pIC50 (MCF-7)	pIC50 (BT474)
< 4.30	6.72	< 4.30	CC(C)N1CCN(c2ccc(N/C=C3\C(=O)NC(=O)c4ccc(I)cc43)cn2)CC1 [Example 413]	5.72	5.48	5.24	5.30
< 4.30	6.30	< 4.30	CCN1CCN(c2ccc(N/C=C3\C(=O)NC(=O)c4ccc(I)cc43)cn2)CC1 [Example 414, (4Z)-4-({[6-(4-Ethylpiperazin-1-yl)pyridin-3-yl]amino}methylene)-6-iodoisoquinoline-1,3(2H,4H)-dione]	5.62	5.21	5.22	5.21
< 4.30	5.82	< 4.30	O=C1NC(=O)c2ccc(I)cc2/C1=C/Nc1ccc(N2CCN(CC3CC3)CC2)nc1 [Example 415, (4Z)-4-[({6-[4-(Cyclopropylmethyl)piperazin-1-yl]pyridin-3-yl}amino)methylene]-6-iodoisoquinoline-1,3(2H,4H)-dione]	5.92	5.70	5.44	5.54
< 4.30	6.89	< 4.30	CCN1CCN(c2ccc(N/C=C3\C(=O)NC(=O)c4ccc(-c5ccoc5)cc43)cn2)CC1 [Example 416, (4Z)-4-({[6-(4-Ethylpiperazin-1-yl)pyridin-3-yl]amino}methylene)-6-(3-furyl)isoquinoline-1,3(2H,4H)-dione]	5.57	5.51	5.21	5.60
< 4.30	7.52	< 4.30	CC(C)N1CCN(c2ccc(N/C=C3\C(=O)NC(=O)c4ccc(-c5ccsc5)cc43)cn2)CC1 [Example 417, (4Z)-4-({[6-(4-Isopropylpiperazin-1-yl)pyridin-3-yl]amino}methylene)-6-(3-thienyl)isoquinoline-1,3(2H,4H)-dione]	5.89	5.51	5.49	5.55
< 4.30	7.70	< 4.30	O=C1NC(=O)c2ccc(-c3ccsc3)cc2/C1=C/Nc1ccc(N2CCN(CC3CC3)CC2)nc1 [Example 418, (4Z)-4-[({6-[4-(Cyclopropylmethyl)piperazin-1-yl]pyridin-3-yl}amino)methylene]-6-(3-thienyl)isoquinoline-1,3(2H,4H)-dione]	5.85	5.62	5.49	5.57
4.51	6.11	< 4.30	C=CCN1CCCC1c1ccc(N/C=C2\C(=O)NC(=O)c3ccc(I)cc32)cc1 (stereo not shown) [Example 419, 4-{[4-(1-Allyl-pyrrolidin-2-yl)-phenylamino]-methylene}-6-iodo-4H-isoquinoline-1,3-dione]	5.15	4.92	5.12	4.89
< 4.30	6.96	< 4.30	C=CCN1CCCC1c1ccc(N/C=C2\C(=O)NC(=O)c3ccc(-c4ccsc4)cc32)cc1 (stereo not shown) [Example 420, 4-{[4-(1-Allyl-pyrrolidin-2-yl)-phenylamino]-methylene}-6-thiophen-3-yl-4H-isoquinoline-1,3-dione]	5.40	4.79	4.43	5.11
5.82	7.22	5.20	Nc1cnc(CN/C=C2\C(=O)NC(=O)c3ccc(I)cc32)cc1O [Example 424, 4-{[(5-Amino-4-hydroxy-pyridin-2-ylmethyl)-amino]-methylene}-6-iodo-4H-isoquinoline-1,3-dione]	< 4.30	< 4.30	< 4.30	4.90
6.15	6.89	5.19	C=CC(=O)Nc1cnc(CN/C=C2\C(=O)NC(=O)c3ccc(I)cc32)cc1O [Example 428, N-(4-Hydroxy-6-{[(6-iodo-1,3-dioxo-2,3-dihydro-1H-isoquinolin-4-ylidenemethyl)-amino]-methyl}-pyridin-3-yl)-acrylamide]	6.11	6.19	5.78	7.15
< 4.30	5.52	< 4.30	CN(C)C(=O)C1CCN(c2ccc(N/C=C3\C(=O)NC(=O)c4ccc(I)cc43)cc2)CC1 [Example 429, 1-(4-{[(Z)-(6-Iodo-1,3-dioxo-2,3-dihydroisoquinolin-4(1H)-ylidene)methyl]amino}phenyl)-N,N-dimethylpiperidine-4-carboxamide]	4.68	4.68	< 4.30	4.93
4.81	5.64	4.71	NC(=O)C1CCN(c2ccc(N/C=C3\C(=O)NC(=O)c4ccc(I)cc43)cc2)CC1 [Example 430, 1-(4-{[(Z)-(6-Iodo-1,3-dioxo-2,3-dihydroisoquinolin-4(1H)-ylidene)methyl]amino}phenyl)piperidine-4-carboxamide]	5.25	4.83	4.93	4.86
5.39	5.89	5.07	O=C1NC(=O)c2ccc(I)cc2/C1=C/Nc1ccc(N2CCC(C(=O)O)CC2)cc1 [Example 431, 1-(4-{[(Z)-(6-Iodo-1,3-dioxo-2,3-dihydroisoquinolin-4(1H)-ylidene)methyl]amino}phenyl)piperidine-4-carboxylic acid]	5.21	5.24	5.06	5.19
< 4.30	5.19	< 4.30	CON(C)C(=O)C1CCN(c2ccc(N/C=C3\C(=O)NC(=O)c4ccc(I)cc43)cc2)CC1 [Example 432, 1-(4-{[(Z)-(6-Iodo-1,3-dioxo-2,3-dihydroisoquinolin-4(1H)-ylidene)methyl]amino}phenyl)-N-methoxy-N-methylpiperidine-4-carboxamide]	4.95	5.07	4.62	5.03
< 4.30	< 4.30	4.39	O=C1NC(=O)c2ccc(I)cc2/C1=C/Nc1ccc(N2CCC(CO)CC2)cc1 [Example 434, (4Z)-4-[({4-[4-(Hydroxymethyl)piperidin-1-yl]phenyl}amino)methylene]-6-iodoisoquinoline-1,3(2H,4H)-dione]	5.35	5.09	4.50	5.09
4.41	5.34	< 4.30	COCC1CCN(c2ccc(N/C=C3\C(=O)NC(=O)c4ccc(I)cc43)cc2)CC1 [Example 435, (4Z)-6-Iodo-4-[({4-[4-(methoxymethyl)piperidin-1-yl]phenyl}amino)methylene]isoquinoline-1,3(2H,4H)-dione]	5.49	5.28	4.59	5.07
< 4.30	6.59	< 4.30	CCC1CCCN1Cc1ccc(N/C=C2\C(=O)NC(=O)c3ccc(I)cc32)cc1 (stereo not shown) [Example 436, 4-{[4-(2-Ethyl-pyrrolidin-1-ylmethyl)-phenylamino]-methylene}-6-iodo-4H-isoquinoline-1,3-dione]	5.60	5.64	5.82	6.40
< 4.30	6.85	< 4.30	O=C1NC(=O)c2ccc(-c3ccc(Cl)s3)cc2/C1=C/Nc1ccc(CN2CCC[C@H]2CO)cc1 [Example 441, 6-(5-Chloro-thiophen-2-yl)-4-{[4-(2-hydroxymethyl-pyrrolidin-1-ylmethyl)-phenylamino]-methylene}-4H-isoquinoline-1,3-dione]	5.96	5.54	5.64	5.49
< 4.30	6.49	< 4.30	CN1CCN(c2ccc(N/C=C3\C(=O)NC(=O)c4ccc(I)cc43)c(F)n2)CC1 [Example 445, (4Z)-4-({[2-Fluoro-6-(4-methylpiperazin-1-yl)pyridin-3-yl]amino}methylene)-6-iodoisoquinoline-1,3(2H,4H)-dione]	5.74	5.57	5.49	5.55
